The record followed here is patent publication US6500865B1, “Sulfonamide derivatives” (Eli Lilly and Company, priority 1998, dated 2002).

This assay concerns the target T1, human GluR4B receptor (Homo sapiens, UniProt P48058).
T1 construct: expressed in transfected cells
Kind of assay: potentiation of agonist-induced excitability of human GluR4B receptor expressed in HEK 293 cells. Type of assay: cell-based. The following applies: human GluR4B expressed in HEK 293 cells; qualitative statement. The text has this: The ability of compounds of formula I to potentiate glutamate receptor-mediated response may be determined using fluorescent calcium indicator dyes (Molecular Probes, Eugene, Oreg., Fluo-3) and by measuring glutamate-evoked efflux of calcium into GluR4 transfected HEK293 cells, as described in more detail below.
In one test, 96 well plates containing confluent monolayers of HEK cells stably expressing human GluR4B (obtained as described in European Patent Application Publication Number EP-A1-583917) are prepared. The tissue culture medium in the wells is then discarded, and the wells are each washed once with 200 μl of buffer (glucose, 10 mM, sodium chloride, 138 mM, magnesium chloride, 1 mM, potassium chloride, 5 mM, calcium chloride, 5 mM, N-[2-hydroxyethyl]-piperazine-N-[2-ethanesulfonic acid], 10 mM, to pH 7.1 to 7.3). […]
Each test is then performed as follows. […] A second fluorescent reading is taken after 5 minutes incubation. 15 μl of 400 μM glutamate solution is then added to each well (final glutamate concentration 100 μM), and a third reading is taken. The activities of test compounds and cyclothiazide solutions are determined by subtracting the second from the third reading (fluorescence due to addition of glutamate in the presence or absence of test compound or cyclothiazide) and are expressed relative to enhance fluorescence produced by 100 μM cyclothiazide.

T1 sequence (P48058 21-902): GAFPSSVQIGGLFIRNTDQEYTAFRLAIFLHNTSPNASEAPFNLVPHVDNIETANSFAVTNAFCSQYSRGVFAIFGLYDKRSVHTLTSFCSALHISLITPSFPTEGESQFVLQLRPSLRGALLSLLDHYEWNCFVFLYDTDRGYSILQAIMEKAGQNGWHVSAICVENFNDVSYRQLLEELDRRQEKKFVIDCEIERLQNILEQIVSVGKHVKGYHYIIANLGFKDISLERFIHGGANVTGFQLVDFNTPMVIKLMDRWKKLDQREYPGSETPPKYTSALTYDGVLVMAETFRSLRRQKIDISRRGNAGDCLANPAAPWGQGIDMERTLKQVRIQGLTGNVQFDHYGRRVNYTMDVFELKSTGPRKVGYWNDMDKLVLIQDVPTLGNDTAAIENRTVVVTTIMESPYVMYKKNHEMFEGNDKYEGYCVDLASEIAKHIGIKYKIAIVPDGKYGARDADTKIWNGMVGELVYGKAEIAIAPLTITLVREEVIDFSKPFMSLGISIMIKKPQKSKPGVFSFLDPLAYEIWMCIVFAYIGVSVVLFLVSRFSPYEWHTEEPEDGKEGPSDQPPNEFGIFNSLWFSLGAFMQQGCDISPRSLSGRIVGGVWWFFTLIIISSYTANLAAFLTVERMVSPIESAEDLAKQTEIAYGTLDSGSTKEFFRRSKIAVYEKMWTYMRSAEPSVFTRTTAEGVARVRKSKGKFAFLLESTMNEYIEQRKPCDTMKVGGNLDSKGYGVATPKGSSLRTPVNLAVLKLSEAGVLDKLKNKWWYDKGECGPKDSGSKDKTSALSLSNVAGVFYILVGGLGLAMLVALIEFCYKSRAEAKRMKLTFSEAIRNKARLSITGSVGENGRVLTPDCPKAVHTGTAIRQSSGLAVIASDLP

In the case of `NS(=O)(=O)c1cc2c(cc1Cl)NC(C1CC3C=CC1C3)NS2(=O)=O` (stereo not shown) [cyclothiazide], the “potentiation of agonist-induced excitability of human GluR4B receptor” value is reported as “potentiate”.
